# Results as given in patent publication US20240308998A1, “PYRROLOPYRIDONE DERIVATIVES USEFUL IN THE TREATMENT OF CANCER” (Tay Therapeutics Limited, priority 2021, published 2024).
# Key:
# BRD4 BD1 = molecular target: T1, BRD4 BD1 (Homo sapiens, UniProt O60885); experiment: NanoBRET bromodomain assay, BRD4 BD1; format: cell-based; conditions: HEK293 cells transfected with NanoLuc-BRD4-BD1
# T1 construct: HEK293 cells were transfected using NanoLuc-BRD4-BD1 or NanoLuc-BRD4-BD2 fusion vectors; host or cells: HEK293
# Method: (§1) HEK293 cells were transfected using NanoLuc-BRD4-BD1 or NanoLuc-BRD4-BD2 fusion vectors and incubated at 37° C. in an atmosphere of 5% CO2 for 20-24 hours. The transfected cells were then dispensed into 96-well plates using 90 μl cell suspension per well containing 2×10^5 cells/ml in Opti-MEM and 1x final concentration of tracer. 90 μl per well of cell suspension without tracer was also dispensed into at least 3 wells as “No tracer control samples” for background correction. Serially diluted test compounds were prepared at 1000× concentration in DMSO and further diluted to 10× concentration in Opti-MEM. 10 μl per well of the serially diluted 10× test compound was added to the 96-well plates containing cells with 1x tracer. Plates were then incubated at 37° C.+5% C02 incubator for 2 hours. Immediately prior to BRET measurements, a 3x solution consisting of 1:166 dilution of Nano-Glo® Substrate plus a 1:500 dilution of Extracellular NanoLuc Inhibitor in Opti-MEM was prepared and 50 μl per well was added to the cells. Donor emission (450 nm) and acceptor emission (610 nm) were measured using PHERAstar (BMG LabTech). For data analysis, the raw BRET ratio was generated and converted to milliBRET units with background correction using the formula: [(Acceptorsample/Donorsample)−(Acceptorno tracer control/Donorno tracer control)]×1000. The mBU data was plotted as a function of compound concentration and IC50s for BRET assay were determined by nonlinear regression analysis of concentration response curves using the GraphPad Prism software.
# [1] = Intrinsic clearance in rat liver microsomes; format: in vitro ADME; conditions: pH 7.4, NADPH, read-out: Rat Microsomal Stability T½
# Method: A 50 mM stock solution (in DMSO) was prepared for the compound. From the stock solution, a working solution of 0.5 mM was prepared by diluting the compound in DMSO. This concentration of working solution was prepared considering a final concentration of 1 uM with 0.1% DMSO. The compound (1 uL of working solution) was spiked in PBS with pH 7.4 (22 uL) at a concentration of 1 uM. Subsequently, 110 uL of 10 mM NADPH was added (as a co-factor). The sample was incubated at 37° C. for 15 min. Following this, pre-warmed rat liver microsomes (27.5 uL; final protein conc. 0.5 mg/mL) were added. The samples were then incubated at 37° C. Aliquots of samples were withdrawn at 0, 5, 15, 30, 45 and 60 min. The reaction was stopped by using chilled acetonitrile containing internal standard. The samples were centrifuged and the supernatants analysed by LC-MS/MS. The percent compound remaining at each time point was calculated with respect to that of the 0 min sample. The data were then analysed to calculate half-life. Note that control samples were run without NADPH and blank samples were prepared using DMSO without the test Compound.
# BRD4 BD2 = molecular target: T2, BRD4 BD2 (Homo sapiens, UniProt O60885); experiment: NanoBRET bromodomain assay, BRD4 BD2; format: cell-based; conditions: for Fold selectivity BRD4 BD1/BD2: IC50 BD1/IC50 BD2; for IC50: NanoBRET, HEK293 cells transfected with NanoLuc-BRD4-BD2
# T2 construct: HEK293 cells were transfected using NanoLuc-BRD4-BD1 or NanoLuc-BRD4-BD2 fusion vectors; host or cells: HEK293
# Method: as §1
# Fold Selectivity Calculated (IC50 BD1/IC50 BD2).
Compound,IC50 (BRD4 BD1) [nM],half-life at 1 uM [1] [h],Fold selectivity BRD4 BD1/BD2 (BRD4 BD2),IC50 (BRD4 BD2) [nM]
"Cc1cccc(C)c1Oc1cn(C)c(=O)cc1-c1cn(C)c(=O)c2[nH]c(-c3cnn[nH]3)cc12 [Example 30, 4-(5-(2,6-dimethylphenoxy)-1-methyl-2-oxo-1,2-dihydropyridin-4-yl)-6-methyl-2-(1H-1,2,3-triazol-5-yl)-1,6-dihydro-7H-pyrrolo[2,3-c] pyridin-7-one]",> 1000,> 1,xx (Fold >50 and ≤200),50 to 200
"Cc1cccc(C)c1Oc1cn(C)c(=O)cc1-c1cn(C)c(=O)c2[nH]c(-c3ccccc3)cc12 [Example 8, 4-(5-(2,6-dimethylphenoxy)-1-methyl-2-oxo-1,2-dihydropyridin-4-yl)-6-methyl-2-phenyl-1,6-dihydro-7H-pyrrolo[2,3-c] pyridin-7-one]",> 1000,> 1,xx (Fold >50 and ≤200),50 to 200
"Cc1cccc(C)c1Oc1cn(C)c(=O)cc1-c1cn(C)c(=O)c2[nH]c(-c3ccc(C#N)cc3)cc12 [Example 24, 4-(4-(5-(2,6-dimethylphenoxy)-1-methyl-2-oxo-1,2-dihydropyridin-4-yl)-6-methyl-7-oxo-6,7-dihydro-1H-pyrrolo[2,3-c]pyridin-2-yl) benzonitrile]",> 1000,> 1,x (Fold >2 and ≤50),200 to 1000
"Cc1cccc(C)c1Oc1cn(C)c(=O)cc1-c1cn(C)c(=O)c2[nH]c(-c3ccc(C(=O)O)cc3)cc12 [Example 35, 4-(4-(5-(2,6-dimethylphenoxy)-1-methyl-2-oxo-1,2-dihydropyridin-4-yl)-6-methyl-7-oxo-6,7-dihydro-1H-pyrrolo[2,3-c]pyridin-2-yl) benzoic acid]",> 1000,> 1,— (Fold ≥0 and ≤2),> 1000
"Cc1cccc(C)c1Oc1cn(C)c(=O)cc1-c1cn(C)c(=O)c2[nH]c(-c3cncnc3)cc12 [Example 22, 4-(5-(2,6-dimethylphenoxy)-1-methyl-2-oxo-1,2-dihydropyridin-4-yl)-6-methyl-2-(pyrimidin-5-yl)-1,6-dihydro-7H-pyrrolo[2,3-c] pyridin-7-one]",> 1000,> 1,xx (Fold >50 and ≤200),50 to 200
"Cc1cccc(C)c1Oc1cn(C)c(=O)cc1-c1cn(C)c(=O)c2[nH]c(-c3ccn[nH]3)cc12 [Example 32, 4-(5-(2,6-dimethylphenoxy)-1-methyl-2-oxo-1,2-dihydropyridin-4-yl)-6-methyl-2-(1H-pyrazol-5-yl)-1,6-dihydro-7H-pyrrolo [2,3-c] pyridin-7-one]",> 1000,> 1,xx (Fold >50 and ≤200),50 to 200
"Cc1ccccc1-c1cc2c(-c3cc(=O)n(C)cc3Oc3c(C)cccc3C)cn(C)c(=O)c2[nH]1 [Example 15, 4-(5-(2,6-dimethylphenoxy)-1-methyl-2-oxo-1,2-dihydropyridin-4-yl)-6-methyl-2-(o-tolyl)-1,6-dihydro-7H-pyrrolo[2,3-c] pyridin-7-one]",> 1000,0.383,x (Fold >2 and ≤50),200 to 1000
"Cc1ncc(-c2cc3c(-c4cc(=O)n(C)cc4Oc4c(C)cccc4C)cn(C)c(=O)c3[nH]2)s1 [Example 31, 4-(5-(2,6-dimethylphenoxy)-1-methyl-2-oxo-1,2-dihydropyridin-4-yl)-6-methyl-2-(2-methylthiazol-5-yl)-1,6-dihydro-7H-pyrrolo[2,3-c] pyridin-7-one]",50 to 500,> 1,xx (Fold >50 and ≤200),≤ 50
"Cc1ccc(F)cc1-c1cc2c(-c3cc(=O)n(C)cc3Oc3c(C)cccc3C)cn(C)c(=O)c2[nH]1 [Example 18, 4-(5-(2,6-dimethylphenoxy)-1-methyl-2-oxo-1,2-dihydropyridin-4-yl)-2-(5-fluoro-2-methylphenyl)-6-methyl-1,6-dihydro-7H-pyrrolo[2,3-c] pyridin-7-one]",> 1000,> 1,xx (Fold >50 and ≤200),50 to 200
"Cc1cccc(C)c1Oc1cn(C)c(=O)cc1-c1cn(C)c(=O)c2[nH]c(-c3cnnn3C)cc12 [Example 33, 4-(5-(2,6-dimethylphenoxy)-1-methyl-2-oxo-1,2-dihydropyridin-4-yl)-6-methyl-2-(1-methyl-1H-1,2,3-triazol-5-yl)-1,6-dihydro-7H-pyrrolo[2,3-c] pyridin-7-one]",> 1000,> 1,x (Fold >2 and ≤50),> 1000
"Cc1cccc(C)c1Oc1cn(C)c(=O)cc1-c1cn(C)c(=O)c2[nH]c(-c3cn(C)nc3C)cc12 [Example 12, 2-(1,3-dimethyl-1H-pyrazol-4-yl)-4-(5-(2,6-dimethylphenoxy)-1-methyl-2-oxo-1,2-dihydropyridin-4-yl)-6-methyl-1,6-dihydro-7H-pyrrolo[2,3-c] pyridin-7-one]",500 to 1000,> 1,xx (Fold >50 and ≤200),≤ 50
"Cc1ccc(Cl)cc1-c1cc2c(-c3cc(=O)n(C)cc3Oc3c(C)cccc3C)cn(C)c(=O)c2[nH]1 [Example 20, 2-(5-chloro-2-methylphenyl)-4-(5-(2,6-dimethylphenoxy)-1-methyl-2-oxo-1,2-dihydropyridin-4-yl)-6-methyl-1,6-dihydro-7H-pyrrolo[2,3-c] pyridin-7-one]",> 1000,> 1,x (Fold >2 and ≤50),200 to 1000
"Cc1ccc(F)c(-c2cc3c(-c4cc(=O)n(C)cc4Oc4c(C)cccc4C)cn(C)c(=O)c3[nH]2)c1 [Example 16, 4-(5-(2,6-dimethylphenoxy)-1-methyl-2-oxo-1,2-dihydropyridin-4-yl)-2-(2-fluoro-5-methylphenyl)-6-methyl-1,6-dihydro-7H-pyrrolo[2,3-c] pyridin-7-one]",> 1000,> 1,xxx (Fold >200),≤ 50
"Cc1ccc(-c2cc3c(-c4cc(=O)n(C)cc4Oc4c(C)cccc4C)cn(C)c(=O)c3[nH]2)cc1 [Example 23, 4-(5-(2,6-dimethylphenoxy)-1-methyl-2-oxo-1,2-dihydropyridin-4-yl)-6-methyl-2-(p-tolyl)-1,6-dihydro-7H-pyrrolo[2,3-c] pyridin-7-one]",> 1000,> 1,x (Fold >2 and ≤50),200 to 1000
"Cc1cccc(C)c1Oc1cn(C)c(=O)cc1-c1cn(C)c(=O)c2[nH]c(-c3ccc(F)cc3)cc12 [Example 25, 4-(5-(2,6-dimethylphenoxy)-1-methyl-2-oxo-1,2-dihydropyridin-4-yl)-2-(4-fluorophenyl)-6-methyl-1,6-dihydro-7H-pyrrolo[2,3-c] pyridin-7-one]",> 1000,> 1,xxx (Fold >200),≤ 50
"Cc1cccc(C)c1Oc1cn(C)c(=O)cc1-c1cn(C)c(=O)c2[nH]c(-c3ccc(S(C)(=O)=O)cc3)cc12 [Example 26, 4-(5-(2,6-dimethylphenoxy)-1-methyl-2-oxo-1,2-dihydropyridin-4-yl)-6-methyl-2-(4-(methylsulfonyl)phenyl)-1,6-dihydro-7H-pyrrolo[2,3-c] pyridin-7-one]",> 1000,> 1,xx (Fold >50 and ≤200),≤ 50
"Cc1ccc(C)c(-c2cc3c(-c4cc(=O)n(C)cc4Oc4c(C)cccc4C)cn(C)c(=O)c3[nH]2)c1 [Example 19, 4-(5-(2,6-dimethylphenoxy)-1-methyl-2-oxo-1,2-dihydropyridin-4-yl)-2-(2,5-dimethylphenyl)-6-methyl-1,6-dihydro-7H-pyrrolo[2,3-c] pyridin-7-one]",> 1000,> 1,x (Fold >2 and ≤50),200 to 1000
